Tests used:
osteoclasts = test: Osteoclast function (pit depths on dentine slices); type: cell-based, mouse; conditions: PI3K inhibitors 100 nM, 72 hr
Procedure: To analyze the effect of the present PI3Kδ inhibitor compounds on osteoclasts, mouse bone marrow cells are isolated and differentiated to osteoclasts by treating the cells with Macrophage Colony Stimulating Factor^−1 (mCSF^−1) and Osteoprotegerin Ligand (OPGL) in serum-containing medium (αMEM with 10% heat-inactivated FBS; Sigma) for 3 days. On day four, when the osteoclasts had developed, the medium is removed and cells are harvested. The osteoclasts are plated on dentine slices at 10^5 cells/well in growth medium, i.e., αMEM containing 1% serum and 2% BSA with […] OPGL and 10 ng/mL mCSF^−1. After 3 hr, the medium is changed to 1% serum and 1% BSA, with or without osteopontin (25 μg/mL) and the PI3K inhibitors (100 nM). The medium is changed every 24 hours with fresh osteopontin and the inhibitors. At 72 hr, the medium is removed, and the dentine surfaces are washed with water to remove cell debris and stained with acid hematoxylin. Excess stain is washed and the pit depths are quantitated using confocal microscopy.

neutrophil [1] = conditions: cited from earlier work
neutrophil [2] = conditions: cited from earlier work; remark: listed apart in the source
Class I PI 3-kinases = conditions: read-out: IC50 against each of the various Class I PI 3-kinases; cited from earlier work

Row | SMILES | osteoclast activity (osteoclasts) | superoxide release (neutrophil [1]) | neutrophil migration (neutrophil [2]) | IC50 (Class I PI 3-kinases)
1 | O=c1cc(N2CCOCC2)oc2c(-c3ccccc3)cccc12 [LY294002] | inhibited osteoclast activity | block neutrophil migration and superoxide release | block neutrophil migration | 
2 | COC[C@H]1OC(=O)c2coc3c2[C@@]1(C)C1=C(C3=O)[C@@H]2CCC(=O)[C@@]2(C)C[C@H]1OC(C)=O [wortmannin] | inhibited osteoclast activity | block neutrophil migration and superoxide release | block neutrophil migration | 1 to 10 nM

— patent USRE44599E1, “Quinazolinones as inhibitors of human phosphatidylinositol 3-kinase delta” (ICOS Corporation, priority 2004, dated 2013)
